According to patent publication US11046699B2, “Pyrazolo-pyrimidin-amino-cycloalkyl compounds and their therapeutic uses” (RAPT THERAPEUTICS, INC., priority 2018, dated 2021):

The compounds below were run against GCN2 (Homo sapiens, UniProt Q9P2K8) (assay: GCN2 enzymatic endpoint assay: phosphorylation of GFP-eIF2α measured by TR-FRET (Lanthascreen)). Conditions: GCN2 biochemical IC50; 4 nM GCN2, 2 μM ATP, 80 nM GFP-eIF2α, 90 min RT; read-out: GCN2 activity.
Format: biochemical
Procedure: The Enzymatic assay was run as an endpoint assay to quantify the activity of the serine/threonine GCN2 kinase by way of measuring phosphorylation of its natural substrate, eiF2α.
The enzymatic reaction was initiated by incubating with 2 μM ATP and 80 nM of GFP labeled eiF2a substrate at room temperature and then stopped after 90 minutes with EDTA. The amount of phosphorylated eIF2α is determined by TR-FRET (Lanthascreen). A terbium labeled antibody associates with the phosphorylated substrate resulting in an increased TR-FRET value. Activity was calculated as the ratio of the acceptor (fluorescein) signal at 520 nm wavelength to the donor (terbium) signal 495 nm. The amount of antibody that is bound to the tracer is directly proportional to the amount of phosphorylated substrate present, and in this manner, kinase activity can be detected and measured by an increase in the TR-FRET value.
Compound addition by D300
5 μL enzyme solution in assay buffer
5 μL substrate/ATP mixture in assay buffer
5 μL stop/detection mix in antibody dilution buffer

Chain of GCN2 (Q9P2K8 whole entry): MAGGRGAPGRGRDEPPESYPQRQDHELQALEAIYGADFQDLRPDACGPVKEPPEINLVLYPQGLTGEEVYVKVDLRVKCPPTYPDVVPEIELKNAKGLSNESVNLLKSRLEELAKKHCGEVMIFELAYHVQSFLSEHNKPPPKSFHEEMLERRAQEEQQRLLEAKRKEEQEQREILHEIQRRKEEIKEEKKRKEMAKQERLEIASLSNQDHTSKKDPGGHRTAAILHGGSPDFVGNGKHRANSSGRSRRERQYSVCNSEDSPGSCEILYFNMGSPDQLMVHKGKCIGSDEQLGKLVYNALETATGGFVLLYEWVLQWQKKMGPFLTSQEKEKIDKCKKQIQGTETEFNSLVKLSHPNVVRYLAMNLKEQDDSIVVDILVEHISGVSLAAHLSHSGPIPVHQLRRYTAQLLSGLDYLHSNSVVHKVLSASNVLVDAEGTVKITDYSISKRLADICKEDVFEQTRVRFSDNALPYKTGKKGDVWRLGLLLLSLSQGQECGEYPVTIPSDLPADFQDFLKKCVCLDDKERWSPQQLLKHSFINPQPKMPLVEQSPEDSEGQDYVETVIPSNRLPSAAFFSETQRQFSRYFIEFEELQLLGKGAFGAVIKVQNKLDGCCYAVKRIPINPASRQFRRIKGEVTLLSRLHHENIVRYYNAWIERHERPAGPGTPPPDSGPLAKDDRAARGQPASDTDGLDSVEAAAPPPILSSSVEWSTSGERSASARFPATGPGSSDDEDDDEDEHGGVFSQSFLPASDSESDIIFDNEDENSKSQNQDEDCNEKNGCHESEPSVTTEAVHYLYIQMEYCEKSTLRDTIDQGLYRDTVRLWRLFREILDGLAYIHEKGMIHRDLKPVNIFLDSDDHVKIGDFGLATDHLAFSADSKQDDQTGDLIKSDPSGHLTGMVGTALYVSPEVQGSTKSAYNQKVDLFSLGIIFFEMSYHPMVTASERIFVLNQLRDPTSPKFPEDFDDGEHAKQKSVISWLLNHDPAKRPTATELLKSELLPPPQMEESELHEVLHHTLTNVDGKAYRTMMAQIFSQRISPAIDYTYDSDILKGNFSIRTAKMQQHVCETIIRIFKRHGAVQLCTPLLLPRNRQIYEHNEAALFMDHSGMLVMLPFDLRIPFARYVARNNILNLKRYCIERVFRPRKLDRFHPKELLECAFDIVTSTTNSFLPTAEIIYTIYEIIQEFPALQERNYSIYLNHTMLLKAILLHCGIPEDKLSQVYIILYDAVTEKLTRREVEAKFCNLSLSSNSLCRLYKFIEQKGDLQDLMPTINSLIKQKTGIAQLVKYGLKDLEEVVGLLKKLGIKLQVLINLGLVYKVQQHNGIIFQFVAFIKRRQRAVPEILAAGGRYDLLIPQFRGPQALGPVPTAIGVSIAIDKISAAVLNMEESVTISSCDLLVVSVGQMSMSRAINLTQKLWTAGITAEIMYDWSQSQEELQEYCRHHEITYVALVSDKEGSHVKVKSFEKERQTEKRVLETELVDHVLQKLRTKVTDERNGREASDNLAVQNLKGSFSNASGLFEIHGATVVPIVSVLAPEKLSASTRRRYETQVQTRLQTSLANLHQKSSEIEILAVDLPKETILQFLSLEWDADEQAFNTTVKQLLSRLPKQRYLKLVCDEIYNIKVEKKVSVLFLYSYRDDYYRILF

IC50 | Compound
25 to 200 nM | CNC(=O)[C@]1(C)CC[C@@H](Nc2ncc3c(Br)nn(-c4ccc5nccnc5c4)c3n2)C1 (single isomer, unassigned) [Example 11]
25 to 200 nM | CNC(=O)[C@]1(C)CC[C@@H](Nc2ncc3c(Br)nn(-c4cccc(NC(=O)c5cnccn5)c4)c3n2)C1 [Example 54, N-(3-(3-bromo-6-(((1R,3R)-3-methyl-3-(methylcarbamoyl)cyclopentyl)amino)-1H-pyrazolo[3,4-d]pyrimidin-1-yl)phenyl)pyrazine-2-carboxamide]
< 25 nM | CNC(=O)[C@]1(C)CC[C@@H](Nc2ncc3c(Br)nn(-c4ccc5nnccc5c4)c3n2)C1 [Example 42, (1R,3R)-3-((3-bromo-1-(cinnolin-6-yl)-1H-pyrazolo[3,4-d]pyrimidin-6-yl)amino)-N,1-dimethylcyclopentane-1-carboxamide; 2,2,2-trifluoroacetic acid]

Same assay, conditions: tested as described in Example 77; compound and/or hydrochloride, dihydrochloride or trifluoroacetic acid salt; read-out: IC 50 Activity

Compound | IC50
CNC(=O)[C@]1(C)CCC(Nc2ncc3c(Br)nn(-c4ccc(C(N)=O)c(Cl)c4)c3n2)C1 (stereo partly drawn) [4-[3-bromo-6-[[(3R)-3-methyl-3-(methylcarbamoyl)cyclopentyl]amino]pyrazolo[3,4-d]pyrimidin-1-yl]-2-chloro-benzamide] | 25 to 200 nM
CN[C@]1(C)CC[C@@H](Nc2ncc3c(Br)nn(-c4ccc(-c5nnc(C)s5)cc4)c3n2)C1 | 25 to 200 nM
N#Cc1cc(-n2nc(Br)c3cnc(N[C@@H]4CC[C@@H](C(=O)NC[C@@H]5COCCN5)C4)nc32)cc2cccnc12 [(1R,3R)-3-((3-bromo-1-(8-cyanoquinolin-6-yl)-1H-pyrazolo[3,4-d]pyrimidin-6-yl)amino)-N-(((R)-morpholin-3-yl)methyl)cyclopentane-1-carboxamide] | < 25 nM
CNC(=O)[C@]1(C)CC[C@@H](Nc2ncc3c(Br)nn(-c4cc(CO)cc(S(C)(=O)=O)c4)c3n2)C1 [(1R,3R)-3-[[3-bromo-1-[3-(hydroxymethyl)-5-methylsulfonyl-phenyl]pyrazolo[3,4-d]pyrimidin-6-yl]amino]-N,1-dimethyl-cyclo-pentanecarboxamide] | 25 to 200 nM
CNC(=O)[C@]1(C)CC[C@@H](Nc2ncc3c(Br)nn(-c4ccc5cncnc5c4)c3n2)C1 | 25 to 200 nM
CNC(=O)C1(CCS(C)(=O)=O)CC[C@@H](Nc2ncc3c(Br)nn(-c4ccc(-c5nnc(C)s5)c(CCC#N)c4)c3n2)C1 (stereo partly shown) | 25 to 200 nM
COC(=O)N1CC[C@@H](Nc2ncc3c(Br)nn(-c4ccc(-c5nnc(C)s5)cc4)c3n2)C1 | 25 to 200 nM
CNC(=O)[C@]1(CC(F)F)CC[C@@H](Nc2ncc3c(Br)nn(-c4cc(C#N)cc(OCC5CNC5)c4)c3n2)C1 [(1R,3R)-3-[[1-[3-(azetidin-3-ylmethoxy)-5-cyano-phenyl]-3-bromo-pyrazolo[3,4-d]pyrimidin-6-yl]amino]-1-(2,2-difluoroethyl)-N-methyl-cyclopentanecarboxamide] | 25 to 200 nM
Cc1nnc(-c2ccc(-n3nc(Br)c4cnc(N[C@@H]5CC[C@@](C)(N)C5)nc43)cc2CCC#N)s1 | 25 to 200 nM
N#Cc1cc(-n2nc(Br)c3cnc(N[C@@H]4CC[C@@H](C(=O)NCC5(F)CNC5)C4)nc32)cc2cccnc12 | < 25 nM
O=C(O)CCNC(=O)[C@@H]1CC[C@@H](Nc2ncc3c(Br)nn(-c4cc(F)c5ncccc5c4)c3n2)C1 [3-((1R,3R)-3-((3-bromo-1-(8-fluoroquinolin-6-yl)-1H-pyrazolo[3,4-d]pyrimidin-6-yl)amino)cyclopentane-1-carboxamido) propanoic acid] | 25 to 200 nM
CNC(=O)CC1CC(Nc2ncc3c(Br)nn(-c4ccc(-c5nnc(C)s5)c(CCC#N)c4)c3n2)C1 (stereo not shown) | 25 to 200 nM
CNC(=O)[C@]1(C)CC[C@@H](Nc2ncc3c(Br)nn(-c4cc(Cl)c(F)c(CS(C)(=O)=O)c4)c3n2)C1 | 25 to 200 nM
CNC(=O)[C@]1(CC(F)(F)F)CC[C@@H](Nc2ncc3c(Br)nn(-c4ccc(-c5nnc(C)s5)cc4)c3n2)C1 | 25 to 200 nM
Cc1nc2c(F)cc(-n3nc(Br)c4cnc(N[C@@H]5CC[C@@H](C(=O)N6CCN(C)C(=O)C6)C5)nc43)cc2cc1F [4-((1R,3R)-3-((3-bromo-1-(3,8-difluoro-2-methylquinolin-6-yl)-1H-pyrazolo[3,4-d]pyrimidin-6-yl)amino)cyclopentane-1-carbonyl)-1-methylpiperazin-2-one] | 25 to 200 nM
C[C@@H]1C(=O)N(C)CCN1C(=O)[C@@H]1CC[C@@H](Nc2ncc3c(Br)nn(-c4cc(C#N)c5ncccc5c4)c3n2)C1 [6-[3-bromo-6-[[(1R,3R)-3-[(2R)-2,4-dimethyl-3-oxo-piperazine-1-carbonyl]cyclopentyl]amino]pyrazolo[3,4-d]pyrimidin-1-yl] quinoline-8-carbonitrile] | < 25 nM
CNC(=O)[C@]1(C)CC[C@@H](Nc2ncc3c(Br)nn(-c4cc(Cl)cc(OCC(C)O)c4)c3n2)C1 (stereo partly drawn) [(1R,3R)-3-[[3-bromo-1-[3-chloro-5-(2-hydroxypropoxy)phenyl]pyrazolo[3,4-d]pyrimidin-6-yl]amino]-N,1-dimethyl-cyclopentanecarboxamide] | 25 to 200 nM
COC(C)(C)CN(C)C(=O)[C@]1(C)CC[C@@H](Nc2ncc3c(Br)nn(-c4cc(F)c5ncccc5c4)c3n2)C1 [(1R,3R)-3-[[3-bromo-1-(8-fluoro-6-quinolyl)pyrazolo[3,4-d]pyrimidin-6-yl]amino]-N-(2-methoxy-2-methyl-propyl)-N,1-dimethyl-cyclopentanecarboxamide] | < 25 nM
CNC(=O)[C@]1(C)CC[C@@H](Nc2ncc3c(Br)nn(-c4cc(C5CCCO5)c5ncccc5c4)c3n2)C1 (stereo partly drawn) [(1R,3R)-3-[[3-bromo-1-(8-tetrahydrofuran-2-yl-6-quinolyl)pyrazolo[3,4-d]pyrimidin-6-yl]amino]-N,1-dimethyl-cyclopentane-carboxamide] | 25 to 200 nM
CNC(=O)C1(C(C)C#N)CC[C@@H](Nc2ncc3c(Br)nn(-c4ccc(-c5nnc(C)s5)cc4)c3n2)C1 (stereo partly shown) | 25 to 200 nM
Cc1nnc(-c2ccc(-n3nc(Br)c4cnc(NC5CCN(CC(F)F)C5)nc43)cc2)s1 (stereo not shown) [3-bromo-N-[1-(2,2-difluoroethyl)pyrrolidin-3-yl]-1-[4-(5-methyl-1,3,4-thiadiazol-2-yl)phenyl] pyrazolo[3,4-d]pyrimidin-6-amine] | 25 to 200 nM
C[C@@]1(O)CC[C@@H](Nc2ncc3c(Br)nn(-c4cc(CCN)c5ncccc5c4)c3n2)C1 | < 25 nM
CNC(=O)[C@]1(C)CC[C@@H](Nc2ncc3c(Br)nn(-c4cc(C#N)c5nc(C)ccc5c4)c3n2)C1 [(1R,3R)-3-[[3-bromo-1-(8-cyano-2-methyl-6-quinolyl)pyrazolo[3,4-d]pyrimidin-6-yl]amino]-N,1-dimethyl-cyclopentane-carboxamide] | < 25 nM

Second part, the compound after the results:

IC50 | Compound
25 to 200 nM | CNC(=O)[C@]1(C)CC[C@@H](Nc2ncc3c(Br)nn(-c4ccc(-c5nnc(C(C)(C)C)o5)cc4)c3n2)C1 [(1R,3R)-3-[[3-bromo-1-[4-(5-tert-butyl-1,3,4-oxadiazol-2-yl)phenyl]pyrazolo[3,4-d]pyrimidin-6-yl]amino]-N,1-dimethyl-cyclopentane-carboxamide]
25 to 200 nM | CNC(=O)[C@]1(C)CC[C@@H](Nc2ncc3c(Br)nn(-c4cc(CN5CCNCCC5=O)c5ncccc5c4)c3n2)C1 [(1R,3R)-3-[[3-bromo-1-[8-[(7-oxo-1,4-diazepan-1-yl)methyl]-6-quinolyl]pyrazolo[3,4-d]pyrimidin-6-yl]amino]-N,1-dimethyl-cyclopentanecarboxamide]
25 to 200 nM | CN(CCNC(=O)[C@@H]1CC[C@@H](Nc2ncc3c(Br)nn(-c4cc(F)c5ncccc5c4)c3n2)C1)CC(=O)O [N-(2-((1R,3R)-3-((3-bromo-1-(8-fluoroquinolin-6-yl)-1H-pyrazolo[3,4-d]pyrimidin-6-yl)amino)cyclopentane-1-carboxamido)ethyl)-N-methylglycine]
25 to 200 nM | Cc1nnc(-c2ccc(-n3nc(Br)c4cnc(N[C@@H]5CCC(C)(C(=O)N6CCNCC6)C5)nc43)cc2)o1 (stereo partly drawn) [[(3R)-3-[[3-bromo-1-[4-(5-methyl-1,3,4-oxadiazol-2-yl)phenyl]pyrazolo[3,4-d]pyrimidin-6-yl]amino]-1-methyl-cyclo-pentyl]-piperazin-1-yl-methanone]
25 to 200 nM | CNC(=O)[C@]1(C)CC[C@@H](Nc2ncc3c(Br)nn(-c4cc(C#N)cc(OCC#N)c4)c3n2)C1 [(1R,3R)-3-[[3-bromo-1-[3-cyano-5-(cyanomethoxy)phenyl]pyrazolo[3,4-d]pyrimidin-6-yl]amino]-N,1-dimethyl-cyclopentanecarboxamide]
25 to 200 nM | CNC(=O)[C@]1(C)CC[C@@H](Nc2ncc3c(Br)nn(-c4cc(Cl)cc(C5COC(=O)N5C)c4)c3n2)C1 (stereo partly drawn) [(1R,3R)-3-[[3-bromo-1-[3-chloro-5-(3-methyl-2-oxo-oxazolidin-4-yl)phenyl]pyrazolo[3,4-d]pyrimidin-6-yl]amino]-N,1-dimethyl-cyclopentanecarboxamide]
25 to 200 nM | CNC(=O)C1(C)CC[C@@H](Nc2ncc3c(Br)nn(-c4ccc5nc(C)cc(Cl)c5c4)c3n2)C1 (stereo partly drawn) [(3R)-3-[[3-bromo-1-(4-chloro-2-methyl-6-quinolyl)pyrazolo[3,4-d]pyrimidin-6-yl]amino]-N,1-dimethyl-cyclopentane-carboxamide]
25 to 200 nM | CNC(=O)[C@]1(C)CC[C@@H](Nc2ncc3c(Br)nn(-c4cc(C#N)cc(OCCO)c4)c3n2)C1 [(1R,3R)-3-[[3-bromo-1-[3-cyano-5-(2-hydroxyethoxy)phenyl]pyrazolo[3,4-d]pyrimidin-6-yl]amino]-N,1-dimethyl-cyclopentanecarboxamide]
